Data set [1] relates to catalepsy. The following applies: cited from earlier work.
For data set [2], the target named is human adenosine A2A receptors (Homo sapiens, UniProt P29274). Briefly: in vitro binding to human adenosine A2A receptors, displacement of [3H]-CGS 21680. The following applies: hA2A receptors, radioligand [3H]-CGS 21680. The text has this: Adenosine Receptor Binding Binding Affinities at hA2A Receptors
(In general: In a radioligand displacement assay an active substance lowers the binding of a labelled ligand.)

The test system of data set [3] is Parkinsonian patients. The note with it: cited from earlier work.

human adenosine A2A receptors, sequence (P29274 whole entry): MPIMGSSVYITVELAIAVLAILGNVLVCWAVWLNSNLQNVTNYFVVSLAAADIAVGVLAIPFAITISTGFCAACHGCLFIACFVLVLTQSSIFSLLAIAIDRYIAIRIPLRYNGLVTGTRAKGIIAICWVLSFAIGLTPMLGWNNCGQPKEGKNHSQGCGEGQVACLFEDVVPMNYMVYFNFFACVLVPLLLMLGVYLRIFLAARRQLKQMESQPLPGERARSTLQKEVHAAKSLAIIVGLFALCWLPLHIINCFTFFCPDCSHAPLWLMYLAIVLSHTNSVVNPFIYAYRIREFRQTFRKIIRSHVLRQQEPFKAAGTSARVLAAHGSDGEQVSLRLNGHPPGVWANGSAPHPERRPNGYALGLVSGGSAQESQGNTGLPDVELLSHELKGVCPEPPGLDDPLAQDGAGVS

As for `CCCn1c(=O)c2c(nc(/C=C/c3ccc(OC)c(OC)c3)n2C)n(CCC)c1=O` [KF 17837, (E)-8-(3,4-dimethoxystyryl)-1,3-dipropyl-7-methylxanthine], in data set [1] (in vivo), the “anticataleptic effects of a subthreshold dose of L-DOPA plus benserazide” value is recorded as “potentiated”; the “catalepsy induced by haloperidol and reserpine” value was “reduced”. The “cataleptic responses induced by intracerebroventricular CGS 21680” value in data set [1] (oral administration) is reported as “significantly ameliorated”.

By Ki is commonly meant the equilibrium dissociation constant of an inhibitor or competing ligand from its target. On to `O=C(NCCNc1nc(-c2ccco2)c2sccc2n1)OCc1ccccc1` [Example 89, benzyl (2-(4-(2-furyl)thieno[3,2-d]pyrimidine-2-ylamino)ethyl)carbamate], for which the inhibition constant (Ki) in data set [2] amounted to 20 nM. In data set [2], `Cc1cnc(-c2nc(N(C)C)nc3ccsc23)s1` [Example 104, N,N-dimethyl-4-(5-methyl-2-thiazolyl)thieno[3,2-d]pyrimidine-2-amine] displayed a Ki of 5 nM. Consider `CC(C)(C)c1nc(-c2nccs2)c2sccc2n1` [Example 139, 2-tert-butyl-4-(2-thiazolyl)thieno[3,2-d]pyrimidine], for which the Ki in data set [2] amounted to 3 nM.

Consider `Cc1nc(-c2nc(N(C)C)nc3ccsc23)sc1C` [Example 105, N,N-dimethyl-4-(4,5-dimethyl-2-thiazolyl)thieno[3,2-d]pyrimidine-2-amine], for which the Ki in data set [2] was 6 nM. Usually melting point stands for the temperature, or range, at which the solid turns liquid. As for `C=CCNc1nc(-c2ccco2)c2sccc2n1` [Example 40, N-allyl-4-(2-furyl)thieno[3,2-d]pyrimidine-2-amine], the melting point fell in the range of 101 to 102 °C. Besides, the inhibitory constant (Ki) in data set [2] stood at 19 nM. The compound `CC(C)c1nc(-c2nccs2)c2sccc2n1` [Example 113, 2-isopropyl-4-(2-thiazolyl)thieno[3,2-d]pyrimidine] yielded a Ki in data set [2] of 1 nM. On to `CN(C)c1nc(-c2nccs2)c2sccc2n1` [Example 65, N,N-dimethyl-4-(2-thiazolyl)thieno[3,2-d]pyrimidine-2-amine], for which the affinity in data set [2] corresponds to a Ki of 2 nM. The compound `OCCNc1nc(-c2ccco2)c2scc(Br)c2n1` [Example 15, 7-bromo-4-(2-furyl)-N-(2-hydroxyethyl)thieno[3,2-d]pyrimidine-2-amine] had a melting point of 173.4 to 174.4 °C. Besides, the inhibition constant (Ki) in data set [2] was 11 nM. Regarding `CCc1nc(-c2nccs2)c2sccc2n1` [Example 82, 2-ethyl-4-(2-thiazolyl)thieno[3,2-d]pyrimidine], the inhibitory constant (Ki) in data set [2] was 2 nM. For `Nc1nc(-c2nccs2)c2sccc2n1` [Example 110, 4-(2-thiazolyl)thieno[3,2-d]pyrimidine-2-amine], the inhibition constant (Ki) in data set [2] is 35 nM.

In the case of `Cn1c(=O)c2[nH]cnc2n(C)c1=O` [theophylline, 1,3-dimethylxanthine], in data set [3] (15 Parkinsonian patients, up to 12 weeks, 150 mg/day), the “mean objective disability scores” value is reported as “significant improvements”. The “patients reporting moderate or marked subjective improvement” value in data set [3] (of 15 Parkinsonian patients, up to 12 weeks, 150 mg/day) is 11. Further, in data set [3] (slow release oral preparation 150 mg/day, after one week), the serum theophylline levels is listed as 4.44 mg/L. For the compound `ClCCc1nc(-c2nccs2)c2sccc2n1` [Example 154, 2-(2-chloroethyl)-4-(2-thiazolyl)thieno[3,2-d]pyrimidine], in data set [2], the Ki came out at 6 nM. On to `COCCNc1nc(-c2ccco2)c2scc(Br)c2n1` [Example 71], for which the melting point was in the range of 65 to 65.4 °C. In data set [2], this compound displayed an inhibition constant Ki of 8 nM.

In turn, `CCc1nc(-c2nc(C)cs2)c2sccc2n1` [Example 80, 2-ethyl-4-(4-methyl-2-thiazolyl)thieno[3,2-d]pyrimidine] showed an inhibitory constant (Ki) in data set [2] of 1 nM. For the compound `CC(C)c1nc(-c2ccccn2)c2sccc2n1` [Example 70, 2-isopropyl-4-(2-pyridyl)thieno[3,2-d]pyrimidine], in data set [2], the Ki turned out to be 4 nM. With `Nc1nc(-c2ccco2)c2sccc2n1` [Example 79, 4-(2-furyl)thieno[3,2-d]pyrimidine-2-amine], the inhibition constant (Ki) in data set [2] was 14 nM. In turn, `CCc1nc(-c2nc(CC)nc3ccsc23)c2sccc2n1` [Example 119, 2-ethyl-4-(2-ethylthieno[3,2-d]pyrimidin-4-yl)thieno[3,2-d]pyrimidine] displayed a melting point of 179 °C. The same measure, in the same setting: to `CN(C)c1nc(-c2cnn(COCC[Si](C)(C)C)c2)c2sccc2n1` belongs 60 to 61 °C; to `c1csc(-c2nc(-c3nccs3)c3sccc3n2)c1` [Example 153, 4-(2-thiazolyl)-2-(2-thienyl)thieno[3,2-d]pyrimidine], 221.9 °C.

In the case of `CC(=O)CC(=O)N(C)c1nc(-c2ccco2)c2sccc2n1` [Example 60, N-(4-(2-furyl)thieno[3,2-d]pyrimidine-2-yl)-N-methyl-3-oxobutanamide], the melting point fell in the range of 108.3 to 108.6 °C.
